Reference: patent publication US20220162167A1, “SUBSTITUTED BICYCLIC AND TETRACYCLIC QUINONES AND USE THEREOF AS ANTI-CANCER AGENTS” (THE REGENTS OF THE UNIVERSITY OF MICHIGAN, priority 2019, published 2022)

Key:
Type in all cases: cell-based
[1] = system: CCRF-CEM; test: NCI60 growth inhibition, CCRF-CEM; details: Leukemia
Procedure: (§1) Representative compounds were tested in 60 cell lines (NCI60) at the National Cancer Institute, Developmental Therapeutics Program.
(§2) Representative compounds were tested in a panel of 60 cancer cells (NCI 60) at the National Cancer Institute. Growth inhibition are shown in table 2, table 3, table 4, table 5, and FIG. 1, FIG. 2, FIG. 3, FIG. 4, FIG. 5.

[2] = system: HL-60(TB); test: NCI60 growth inhibition, HL-60(TB); details: Leukemia
Procedure: as §1, §2

[3] = system: K-562; test: NCI60 growth inhibition, K-562; details: Leukemia
Procedure: as §1, §2

[4] = system: MOLT-4; test: NCI60 growth inhibition, MOLT-4; details: Leukemia
Procedure: as §1, §2

[5] = system: RPMI-8226; test: NCI60 growth inhibition, RPMI-8226; details: Leukemia
Procedure: as §1, §2

[6] = system: SR; test: NCI60 growth inhibition, SR; details: Leukemia
Procedure: as §1, §2

[7] = system: A549/ATCC; test: NCI60 growth inhibition, A549/ATCC; details: Non-Small Cell Lung Cancer
Procedure: as §1, §2

[8] = system: EKVX; test: NCI60 growth inhibition, EKVX; details: Non-Small Cell Lung Cancer
Procedure: as §1, §2

[9] = system: HOP-62; test: NCI60 growth inhibition, HOP-62; details: Non-Small Cell Lung Cancer; further: test concentration or dose not given here
Procedure: as §1, §2

[10] = system: HOP-92; test: NCI60 growth inhibition, HOP-92; details: Non-Small Cell Lung Cancer
Procedure: as §1, §2

[11] = system: NCI-H226; test: NCI60 growth inhibition, NCI-H226; details: Non-Small Cell Lung Cancer; further: test concentration or dose not given here
Procedure: as §1, §2

[12] = system: NCI-H23; test: NCI60 growth inhibition, NCI-H23; details: Non-Small Cell Lung Cancer
Procedure: as §1, §2

[13] = system: NCI-H322M; test: NCI60 growth inhibition, NCI-H322M; details: Non-Small Cell Lung Cancer
Procedure: as §1, §2

[14] = system: NCI-H460; test: NCI60 growth inhibition, NCI-H460; details: Non-Small Cell Lung Cancer
Procedure: as §1, §2

[15] = system: NCI-H522; test: NCI60 growth inhibition, NCI-H522; details: Non-Small Cell Lung Cancer
Procedure: as §1, §2

[16] = system: COLO 205; test: NCI60 growth inhibition, COLO 205; details: Colon Cancer
Procedure: as §1, §2

[17] = system: HCC-2998; test: NCI60 growth inhibition, HCC-2998; details: Colon Cancer
Procedure: as §1, §2

[18] = system: HCT-116; test: NCI60 growth inhibition, HCT-116; details: Colon Cancer
Procedure: as §1, §2

[19] = system: HCT-15; test: NCI60 growth inhibition, HCT-15; details: Colon Cancer; further: test concentration or dose not given here
Procedure: as §1, §2

[20] = system: HT29; test: NCI60 growth inhibition, HT29; details: Colon Cancer
Procedure: as §1, §2

[21] = system: KM12; test: NCI60 growth inhibition, KM12; details: Colon Cancer; further: test concentration or dose not given here
Procedure: as §1, §2

[22] = system: SW-620; test: NCI60 growth inhibition, SW-620; details: Colon Cancer; further: test concentration or dose not given here
Procedure: as §1, §2

[23] = system: SF-268; test: NCI60 growth inhibition, SF-268; details: CNS Cancer; further: test concentration or dose not given here
Procedure: as §1, §2

[24] = system: SF-295; test: NCI60 growth inhibition, SF-295; details: CNS Cancer; further: test concentration or dose not given here
Procedure: as §1, §2

[25] = system: SF-539; test: NCI60 growth inhibition, SF-539; details: CNS Cancer
Procedure: as §1, §2

[26] = system: SNB-19; test: NCI60 growth inhibition, SNB-19; details: CNS Cancer; further: test concentration or dose not given here
Procedure: as §1, §2

[27] = system: SNB-75; test: NCI60 growth inhibition, SNB-75; details: CNS Cancer; further: test concentration or dose not given here
Procedure: as §1, §2

[28] = system: U251; test: NCI60 growth inhibition, U251; details: CNS Cancer
Procedure: as §1, §2

[29] = system: LOX IMVI; test: NCI60 growth inhibition, LOX IMVI; details: Melanoma
Procedure: as §1, §2

[30] = system: MALME-3M; test: NCI60 growth inhibition, MALME-3M; details: Melanoma
Procedure: as §1, §2

[31] = system: M14; test: NCI60 growth inhibition, M14; details: Melanoma
Procedure: as §1, §2

[32] = system: MDA-MB-435; test: NCI60 growth inhibition, MDA-MB-435; details: Melanoma
Procedure: as §1, §2

[33] = system: SK-MEL-2; test: NCI60 growth inhibition, SK-MEL-2; details: Melanoma; further: test concentration or dose not given here
Procedure: as §1, §2

[34] = system: SK-MEL-28; test: NCI60 growth inhibition, SK-MEL-28; details: Melanoma
Procedure: as §1, §2

[35] = system: SK-MEL-5; test: NCI60 growth inhibition, SK-MEL-5; details: Melanoma
Procedure: as §1, §2

[36] = system: UACC-257; test: NCI60 growth inhibition, UACC-257; details: Melanoma; further: test concentration or dose not given here
Procedure: as §1, §2

[37] = system: UACC-62; test: NCI60 growth inhibition, UACC-62; details: Melanoma; further: test concentration or dose not given here
Procedure: as §1, §2

[38] = system: IGROV1; test: NCI60 growth inhibition, IGROV1; details: Ovarian Cancer
Procedure: as §1, §2

[39] = system: OVCAR-3; test: NCI60 growth inhibition, OVCAR-3; details: Ovarian Cancer
Procedure: as §1, §2

[40] = system: OVCAR-4; test: NCI60 growth inhibition, OVCAR-4; details: Ovarian Cancer; further: test concentration or dose not given here
Procedure: as §1, §2

[41] = system: OVCAR-5; test: NCI60 growth inhibition, OVCAR-5; details: Ovarian Cancer
Procedure: as §1, §2

[42] = system: NCI/ADR-RES; test: NCI60 growth inhibition, NCI/ADR-RES; details: Ovarian Cancer
Procedure: as §1, §2

[43] = system: SK-OV-3; test: NCI60 growth inhibition, SK-OV-3; details: Ovarian Cancer
Procedure: as §1, §2

[44] = system: 786-0; test: NCI60 growth inhibition, 786-0; details: Renal Cancer
Procedure: as §1, §2

[45] = system: A498; test: NCI60 growth inhibition, A498; details: Renal Cancer; further: test concentration or dose not given here
Procedure: as §1, §2

[46] = system: ACHN; test: NCI60 growth inhibition, ACHN; details: Renal Cancer
Procedure: as §1, §2

[47] = system: CAKI-1; test: NCI60 growth inhibition, CAKI-1; details: Renal Cancer; further: test concentration or dose not given here
Procedure: as §1, §2

[48] = system: SN12C; test: NCI60 growth inhibition, SN12C; details: Renal Cancer
Procedure: as §1, §2

[49] = system: TK-10; test: NCI60 growth inhibition, TK-10; details: Renal Cancer
Procedure: as §1, §2

[50] = system: UO-31; test: NCI60 growth inhibition, UO-31; details: Renal Cancer
Procedure: as §1, §2

[51] = system: PC-3; test: NCI60 growth inhibition, PC-3; details: Prostate Cancer
Procedure: as §1, §2

[52] = system: DU-145; test: NCI60 growth inhibition, DU-145; details: Prostate Cancer
Procedure: as §1, §2

[53] = system: MCF7; test: NCI60 growth inhibition, MCF7; details: Breast Cancer
Procedure: as §1, §2

[54] = system: MDA-MB-231/ATCC; test: NCI60 growth inhibition, MDA-MB-231/ATCC; details: Breast Cancer
Procedure: as §1, §2

[55] = system: HS 578T; test: NCI60 growth inhibition, HS 578T; details: Breast Cancer
Procedure: as §1, §2

[56] = system: BT-549; test: NCI60 growth inhibition, BT-549; details: Breast Cancer
Procedure: as §1, §2

[57] = system: T-47D; test: NCI60 growth inhibition, T-47D; details: Breast Cancer
Procedure: as §1, §2

[58] = system: MDA-MB-468; test: NCI60 growth inhibition, MDA-MB-468; details: Breast Cancer; further: test concentration or dose not given here
Procedure: as §1, §2

CN1CCN(c2cc(F)c(NC3=C(Cl)C(=O)c4ncccc4C3=O)c(F)c2)CC1 [Compound 1, 7-chloro-6-((2,6-difluoro-4-(4-methylpiperazin-1-yl)phenyl)amino)quinoline-5,8-dione]
Growth inhibition (% control) GIPRCNT [1]: −18.2389 % control | Growth inhibition (% control) GIPRCNT [2]: −26.4294 % control | Growth inhibition (% control) GIPRCNT [3]: −0.8345 % control | Growth inhibition (% control) GIPRCNT [4]: −22.6883 % control | Growth inhibition (% control) GIPRCNT [5]: −20.7257 % control | Growth inhibition (% control) GIPRCNT [6]: −0.8134 % control | Growth inhibition (% control) GIPRCNT [7]: 74.56 % control | Growth inhibition (% control) GIPRCNT [8]: −82.6636 % control | Growth inhibition (% control) GIPRCNT [9]: 83.28 % control | Growth inhibition (% control) GIPRCNT [10]: −79.9407 % control | Growth inhibition (% control) GIPRCNT [11]: 85.32 % control | Growth inhibition (% control) GIPRCNT [12]: −61.2055 % control | Growth inhibition (% control) GIPRCNT [13]: 101.8249 % control | Growth inhibition (% control) GIPRCNT [14]: 9.912 % control | Growth inhibition (% control) GIPRCNT [15]: −59.746 % control | Growth inhibition (% control) GIPRCNT [16]: 33.98 % control | Growth inhibition (% control) GIPRCNT [17]: 61.85 % control | Growth inhibition (% control) GIPRCNT [18]: −69.7462 % control | Growth inhibition (% control) GIPRCNT [19]: −8.531 % control | Growth inhibition (% control) GIPRCNT [20]: 11.1525 % control | Growth inhibition (% control) GIPRCNT [21]: 82.37 % control | Growth inhibition (% control) GIPRCNT [22]: −76.6429 % control | Growth inhibition (% control) GIPRCNT [23]: 48.73 % control | Growth inhibition (% control) GIPRCNT [24]: 78.81 % control | Growth inhibition (% control) GIPRCNT [25]: −25.0889 % control | Growth inhibition (% control) GIPRCNT [26]: 96.33 % control | Growth inhibition (% control) GIPRCNT [27]: 38.01 % control | Growth inhibition (% control) GIPRCNT [28]: −9.877 % control | Growth inhibition (% control) GIPRCNT [29]: −70.2674 % control | Growth inhibition (% control) GIPRCNT [30]: −96.0656 % control | Growth inhibition (% control) GIPRCNT [31]: −40.5376 % control | Growth inhibition (% control) GIPRCNT [32]: −75.7981 % control | Growth inhibition (% control) GIPRCNT [33]: −49.6035 % control | Growth inhibition (% control) GIPRCNT [34]: −55.0718 % control | Growth inhibition (% control) GIPRCNT [35]: −91.7268 % control | Growth inhibition (% control) GIPRCNT [36]: −62.2412 % control | Growth inhibition (% control) GIPRCNT [37]: −45.6278 % control | Growth inhibition (% control) GIPRCNT [38]: −90.4429 % control | Growth inhibition (% control) GIPRCNT [39]: −98.2241 % control | Growth inhibition (% control) GIPRCNT [40]: −99.2407 % control | Growth inhibition (% control) GIPRCNT [41]: −59.8079 % control | Growth inhibition (% control) GIPRCNT [42]: 37.87 % control | Growth inhibition (% control) GIPRCNT [43]: 82.67 % control | Growth inhibition (% control) GIPRCNT [44]: −72.0362 % control | Growth inhibition (% control) GIPRCNT [45]: 80.11 % control | Growth inhibition (% control) GIPRCNT [46]: −93.058 % control | Growth inhibition (% control) GIPRCNT [47]: −85.6094 % control | Growth inhibition (% control) GIPRCNT [48]: −97.4828 % control | Growth inhibition (% control) GIPRCNT [49]: 8.462 % control | Growth inhibition (% control) GIPRCNT [50]: −100 % control | Growth inhibition (% control) GIPRCNT [51]: 11.83 % control | Growth inhibition (% control) GIPRCNT [52]: −67.5681 % control | Growth inhibition (% control) GIPRCNT [53]: −58.1831 % control | Growth inhibition (% control) GIPRCNT [54]: −31.9795 % control | Growth inhibition (% control) GIPRCNT [55]: −16.4793 % control | Growth inhibition (% control) GIPRCNT [56]: 80.52 % control | Growth inhibition (% control) GIPRCNT [57]: −32.5382 % control | Growth inhibition (% control) GIPRCNT [58]: −73.911 % control
